Source: patent publication US8722683B2, “Benzodioxole piperazine compounds” (Hoffmann LA-Roche Inc., priority 2011, dated 2014)

Key:
D2 receptor = D2 receptor (Homo sapiens (Human), UniProt P14416); experiment: Radioligand binding ([3H]-spiperone) to cloned D2 receptor expressed in HEK-293 EBNA cells; details: HEK293 EBNA membranes, 0.7 nM [3H]-spiperone
Protocol: (§1) HEK293 EBNA cells were transiently transfected with expression plasmids encoding for the human D2 or D3 or for the human 5-HT2A receptor, respectively. The cells were harvested 48 h post-transfection, washed three times with cold PBS and stored at −80° C. prior to use. The pellet was suspended in cold 50 mM Tris-HCl buffer containing 10 mM EDTA (pH 7.4) and was homogenized with a Polytron (Kinematica AG, Basel, Switzerland) for 20-30 sec at 12.000 rpm. After centrifugation at 48.000×g for 30 min at 4° C., the pellet was resuspended in cold 10 mM Tris-HCl buffer containing 0.1 mM EDTA (pH 7.4), homogenized, and centrifuged as above. This pellet was further resuspended in a smaller volume of ice cold 10 mM Tris-HCl buffer containing 0.1 mM EDTA (pH 7.4) and homogenized with a Polytron for 20-30 sec at 12.000 rpm. The protein content of this homogenate was determined with the Bio-Rad (Bradford) Protein Assay (Biorad Laboratories GmbH, München, Germany) according to the instructions of the manufacturer using gamma globulin as the standard. This homogenate was stored at −80° C. in aliquots and thawed immediately prior to use.
(§2) Radioligand Binding Assay
(§3) Aliquots of membrane preparations were thawed at RT, resupended in assay buffer (D2, D3: 50 mM Tris-HCl, 120 mM NaCl, 5 mM MgCl2, 1 mM EDTA, 5 mM KCl, 1.5 mM CaCl2, pH=7.4; 5-HT2A: 50 mM Tris-HCl, 10 mM MgCl2, 1 mM EGTA, pH=7.4), homogenized with a Polytron for 20-30 sec at 12.000 rpm and adjusted to a final concentration of approximately 7.5 μg protein/well (D2, D3) and 15 μg protein/well (5-HT2A), respectively.
The binding affinity (Ki) of the compounds was determined using radioligand binding. […] The nonspecific binding was determined with equally composed reaction mixtures in the presence of 10 μM unlabelled spiperone. Per well 45 μl of Microscint 40 (Perkin Elmer, Schwerzenbach, Switzerland) was added, plates for sealed, shaken for 20 min and counted for 3 min on a Topcount Microplate Scintillation Counter (Canberra Packard SA, Zürich, Switzerland) with quenching correction.
(§4) The CPM value for each duplicate of a concentration of competing compound was averaged (y1), then the % specific binding was calculated according to the equation (((y1−non-specific)/(total binding−non-specific))×100). Graphs were plotted with the % specific binding using XLfit, a curve fitting program that iteratively plots the data using Levenberg-Marquardt algorithm. The single site competition analysis equation used was y=A+((B−A)/(1+((x/C)D))), where y is the % specific binding, A is the minimum y, B is the maximum y, C is the IC50, x is the log 10 of the concentration of the competing compound and D is the slope of the curve (the Hill Coefficient). […] The affinity constant (Ki) was calculated using the Cheng-Prusoff equation Ki=(IC50/1+([L]/Kd), where [L] is the concentration of radioligand and Kd is the dissociation constant of the radioligand at the receptor as determined by the saturation isotherm.

D3 receptor = D3 receptor (Homo sapiens (Human), UniProt P35462); experiment: Radioligand binding ([3H]-spiperone) to cloned D3 receptor expressed in HEK-293 EBNA cells; details: HEK293 EBNA membranes, 0.5 nM [3H]-spiperone
Protocol: as §1, §2, §3
The binding affinity (Ki) of the compounds was determined using radioligand binding. […] At the end of the incubation, the reaction mixtures were filtered on to unifilter 96-well white microplates with bonded GF/C filters (Packard BioScience, Zürich, Switzerland; preincubated for 1 h in 0.1% polyethylenimine (PEI) in assay buffer) with a Filtermate 196 harvester (Packard BioScience) and washed 3 times with cold assay buffer. The nonspecific binding was determined with equally composed reaction mixtures in the presence of 10 μM unlabelled spiperone. Per well 45 μl of Microscint 40 (Perkin Elmer, Schwerzenbach, Switzerland) was added, plates for sealed, shaken for 20 min and counted for 3 min on a Topcount Microplate Scintillation Counter (Canberra Packard SA, Zürich, Switzerland) with quenching correction.
as §4

D3 receptor, sequence (P35462 whole entry): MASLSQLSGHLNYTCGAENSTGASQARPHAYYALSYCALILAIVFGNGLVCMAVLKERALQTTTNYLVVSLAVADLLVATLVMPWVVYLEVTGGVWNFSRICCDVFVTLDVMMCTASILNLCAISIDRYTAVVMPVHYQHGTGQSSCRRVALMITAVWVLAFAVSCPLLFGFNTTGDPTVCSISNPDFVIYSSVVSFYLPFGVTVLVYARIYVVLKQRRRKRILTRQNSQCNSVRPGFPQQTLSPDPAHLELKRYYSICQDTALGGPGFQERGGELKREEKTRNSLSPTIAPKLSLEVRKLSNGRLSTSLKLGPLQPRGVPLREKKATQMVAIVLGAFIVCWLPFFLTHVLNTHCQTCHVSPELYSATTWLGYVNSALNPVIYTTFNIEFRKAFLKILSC
D2 receptor, sequence (P14416 whole entry): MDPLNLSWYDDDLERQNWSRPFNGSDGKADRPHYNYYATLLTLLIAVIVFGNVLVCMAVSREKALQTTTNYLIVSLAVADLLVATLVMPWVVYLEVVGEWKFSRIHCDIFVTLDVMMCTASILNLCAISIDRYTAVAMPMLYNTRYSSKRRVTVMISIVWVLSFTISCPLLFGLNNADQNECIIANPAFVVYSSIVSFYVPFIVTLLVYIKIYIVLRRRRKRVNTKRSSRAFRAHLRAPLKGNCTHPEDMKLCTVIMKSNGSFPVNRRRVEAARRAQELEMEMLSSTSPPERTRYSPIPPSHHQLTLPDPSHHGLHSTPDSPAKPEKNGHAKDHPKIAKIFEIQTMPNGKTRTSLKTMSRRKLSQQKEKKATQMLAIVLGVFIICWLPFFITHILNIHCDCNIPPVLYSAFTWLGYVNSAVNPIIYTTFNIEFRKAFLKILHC

| Ki (D2 receptor) [nM] | Ki (D3 receptor) [nM] | Compound |
| --- | --- | --- |
| 76 | 0.91 | N#CCC(=O)N[C@H]1CC[C@H](CCN2CCN(c3cccc4c3OCO4)CC2)CC1 [Example 14, Trans-N-{4-[2-(4-Benzo[1,3]dioxol-4-yl-piperazin-1-yl)-ethyl]-cyclohexyl}-2-cyano-acetamide] |
| 74.5 | 1.28 | CCC(=O)N[C@H]1CC[C@H](CCN2CCN(c3cccc4c3OCO4)CC2)CC1 [Example 7, Trans-N-{4-[2-(4-Benzo[1,3]dioxol-4-yl-piperazin-1-yl)-ethyl]-cyclohexyl}-propionamide] |
| 46.2 | 2.2 | O=S(=O)(N[C@H]1CC[C@H](CCN2CCN(c3cccc4c3OCO4)CC2)CC1)c1ccc(F)cc1 [Example 68, N-trans-{4-[2-(4-Benzo[1,3]dioxol-4-yl-piperazin-1-yl)-ethyl]-cyclohexyl}-4-fluoro-benzenesulfonamide] |
| 73.8 | 1.88 | O=S(=O)(CC(F)(F)F)N[C@H]1CC[C@H](CCN2CCN(c3cccc4c3OCO4)CC2)CC1 [Example 66, 2,2,2-Trifluoro-ethanesulfonic acid-trans-N-{4-[2-(4-benzo[1,3]dioxol-4-yl-piperazin-1-yl)-ethyl]-cyclohexyl}-amide] |
| 67.3 | 1.15 | CC(=O)N[C@H]1CC[C@H](CCN2CCN(c3cccc4c3OCO4)CC2)CC1 [Example 1, Trans-N-{4-[2-(4-Benzo[1,3]dioxol-4-yl-piperazin-1-yl)-ethyl]-cyclohexyl}-acetamide] |
| 89.5 | 14.7 | CO[C@@H](C(=O)N[C@H]1CC[C@H](CCN2CCN(c3cccc4c3OCO4)CC2)CC1)C(C)C [Example 64, (R)-trans-N-{4-[2-(4-Benzo[1,3]dioxol-4-yl-piperazin-1-yl)-ethyl]-cyclohexyl}-2-methoxy-3-methyl-butyramide] |
| 105 | 2.23 | [2H]C1([2H])Oc2cccc(N3CCN(CC[C@H]4CC[C@H](NC(=O)C(C)C)CC4)CC3)c2O1 [Example 80, N-trans-{4-[2-(4-Benzo(2,2-D2) [1,3]dioxol-4-yl-piperazin-1-yl)-ethyl]-cyclohexyl}-isobutyramide] |
| 310 |  | O=C(C[C@H]1CCCCO1)N[C@H]1CC[C@H](CCN2CCN(c3cccc4c3OCO4)CC2)CC1 (single isomer, unassigned) [Example 31, Trans-N-{4-[2-(4-Benzo[1,3]dioxol-4-yl-piperazin-1-yl)-ethyl]-cyclohexyl}-2-(R) or (S)-tetrahydro-pyran-2-yl-acetamide] |
| 148 | 5.73 | [2H]C1([2H])Oc2cccc(N3CCN(CC[C@H]4CC[C@H](NC(=O)[C@@H](C)OC)CC4)CC3)c2O1 [Example 82, (R)—N-trans{4-[2-(4-Benzo(2,2-D2)-[1,3]dioxol-4-yl-piperazin-1-yl)-ethyl]-cyclohexyl}-2-methoxypropanamide] |
| 76.8 | 1.56 | CC(C)(O)CC(=O)N[C@H]1CC[C@H](CCN2CCN(c3cccc4c3OCO4)CC2)CC1 [Example 27, Trans-N-{4-[2-(4-Benzo[1,3]dioxol-4-yl-piperazin-1-yl)-ethyl]-cyclohexyl}-3-hydroxy-3-methyl-butyramide] |
| 95.4 | 1.45 | CS(=O)(=O)CC(=O)N[C@H]1CC[C@H](CCN2CCN(c3cccc4c3OCO4)CC2)CC1 [Example 55, Trans-N-{4-[2-(4-Benzo[1,3]dioxol-4-yl-piperazin-1-yl)-ethyl]-cyclohexyl}-2-methanesulfonyl-acetamide] |
| 175 | 15.7 | O=C(N[C@H]1CC[C@H](CCN2CCN(c3cccc4c3OCO4)CC2)CC1)C1(O)CCCCC1 [Example 37, 1-Hydroxy-cyclohexanecarboxylic acid-trans-N-{4-[2-(4-benzo[1,3]dioxol-4-yl-piperazin-1-yl)-ethyl]-cyclohexyl}-amide] |
| 314 | 1.34 | Cc1cc(CC(=O)N[C@H]2CC[C@H](CCN3CCN(c4cccc5c4OCO5)CC3)CC2)on1 [Example 13, Trans-N-{4-[2-(4-Benzo[1,3]dioxol-4-yl-piperazin-1-yl)-ethyl]-cyclohexyl}-2-(3-methyl-isoxazol-5-yl)-acetamide] |
| 68.5 | 1.29 | COC(=O)N[C@H]1CC[C@H](CCN2CCN(c3cccc4c3OCO4)CC2)CC1 [Example 12, Trans-{4-[2-(4-Benzo[1,3]dioxol-4-yl-piperazin-1-yl)-ethyl]-cyclohexyl}-carbamic acid methyl ester] |
| 137 | 1.81 | CC(C)C(=O)N[C@H]1CC[C@H](CCN2CCN(c3cccc4c3OCO4)CC2)CC1 [Example 17, Trans-N-{4-[2-(4-Benzo[1,3]dioxol-4-yl-piperazin-1-yl)-ethyl]-cyclohexyl}-isobutyramide] |
| 94.6 | 1.4 | O=C(CC1(O)CCC1)N[C@H]1CC[C@H](CCN2CCN(c3cccc4c3OCO4)CC2)CC1 [Example 28, Trans-N-{4-[2-(4-Benzo[1,3]dioxol-4-yl-piperazin-1-yl)-ethyl]-cyclohexyl}-2-(1-hydroxy-cyclobutyl)-acetamide] |
| 61.5 | 1.88 | O=C(N[C@H]1CC[C@H](CCN2CCN(c3cccc4c3OCO4)CC2)CC1)C1(O)CC1 [Example 29, Trans-1-Hydroxy-cyclopropanecarboxylic acid {4-[2-(4-benzo[1,3]dioxol-4-yl-piperazin-1-yl)-ethyl]-cyclohexyl}-amide] |
| 145 | 3.1 | CS(=O)(=O)N[C@H]1CC[C@H](CCN2CCN(c3cccc4c3OCO4)CC2)CC1 [Example 34, Trans-N-{4-[2-(4-Benzo[1,3]dioxol-4-yl-piperazin-1-yl)-ethyl]-cyclohexyl}-methanesulfonamide] |
| 220 |  | O=C(C[C@@H]1CCCCO1)N[C@H]1CC[C@H](CCN2CCN(c3cccc4c3OCO4)CC2)CC1 (single isomer, unassigned) [Example 30, Trans-N-{4-[2-(4-Benzo[1,3]dioxol-4-yl-piperazin-1-yl)-ethyl]-cyclohexyl}-2-(S) or (R)-tetrahydro-pyran-2-yl-acetamide] |
|  | 2.88 | O=S(=O)(N[C@H]1CC[C@H](CCN2CCN(c3cccc4c3OCO4)CC2)CC1)c1ccccc1 [Example 67, N-trans-{4-[2-(4-Benzo[1,3]dioxol-4-yl-piperazin-1-yl)-ethyl]-cyclohexyl}-benzenesulfonamide] |
| 84.9 |  | O=C(N[C@H]1CC[C@H](CCN2CCN(c3cccc4c3OCO4)CC2)CC1)C1(O)CCC1 [Example 35, 1-Hydroxy-cyclobutanecarboxylic acid-trans-N-{4-[2-(4-benzo[1,3]dioxol-4-yl-piperazin-1-yl)-ethyl]-cyclohexyl}-amide] |
|  | 2.25 | Cn1cnc(S(=O)(=O)N[C@H]2CC[C@H](CCN3CCN(c4cccc5c4OCO5)CC3)CC2)c1 [Example 69, 1-Methyl-1H-imidazole-4-sulfonic acid-trans-N-{4-[2-(4-benzo[1,3]dioxol-4-yl-piperazin-1-yl)-ethyl]-cyclohexyl}-amide] |
| 117 |  | O=C(N[C@H]1CC[C@H](CCN2CCN(c3cccc4c3OCO4)CC2)CC1)C1CCCO1 (stereo partly drawn) [Example 44, Tetrahydro-furan-2-carboxylic acid-trans-N-{4-[2-(4-benzo[1,3]dioxol-4-yl-piperazin-1-yl)-ethyl]-cyclohexyl}-amide] |
|  | 3.37 | CO[C@H]1CC[C@H](CC(=O)N[C@H]2CC[C@H](CCN3CCN(c4cccc5c4OCO5)CC3)CC2)CC1 [Example 56, Trans-N-{4-[2-(4-Benzo[1,3]dioxol-4-yl-piperazin-1-yl)-ethyl]-cyclohexyl}-2-(4-methoxy-cyclohexyl)-acetamide] |
